This series is described as follows: Accelerated stability at 56° C. of chlorobutanol and paraben test solution in untreated and fluorinated polypropylene bottles (HPLC concentration). It counts as physicochemical. On the procedure:
Polypropylene bottles (dropper-type) were obtained from Owens-Brockway, Ill. (capacity 5 ml). Some of the bottles were sent to a company called Fluoro-Seal (Columbus, Ohio) where they were treated for fluorine-coating under a proprietary method. After the bottles were ‘fluorosealed’ (done at ‘level 5’) they were washed in dilute soap solution rinsed several times in de-ionized water and dried before use. The bottles were then filled with 3 ml of a chlorobutanol and paraben test solution (Table 4). Control samples of untreated polypropylene bottles filled with the same solution were also prepared. All samples were prepared in duplicate and put up on accelerated stability at 56° C. Before putting on stability, ‘0’ time-point samples from all bottles were collected and the bottles were weighed. Concentration of cholorobutanol and methyl- and propyl parabens was determined by an HPLC method. Samples were taken at 1 wk, 2 wk and 4 wks by expelling ˜50-100 mcg droplets into tared vials. Bottles were weighed before and after sampling, before returning to condition. The following terms are used in Table 4, below. PP means polypropylene (untreated). PP-FL or PP-FL5 means fluorinated polypropylene at service provider's specified level of ‘5’. LDPE is low density polyethylene (untreated). LDPE-FL5 means low density polyethylene fluorinated at service provider's specified level of ‘5’. Duplicate samples were measured.

For `CCCOC(=O)c1ccc(O)cc1` [PROPYLPARABEN, propylparaben], the Conc. of propylparaben (bottle FL-5P P-2 (fluorinated polypropylene, level 5), time of storage 0 weeks) was determined as 102 µg/mL; the Conc. of propylparaben (bottle FL-5P P-2 (fluorinated polypropylene, level 5), time of storage 1 week) came out at 95.3 µg/mL; the Conc. of propylparaben (bottle FL-5P P-2 (fluorinated polypropylene, level 5), time of storage 2 weeks) was found to be 96.6 µg/mL; the Conc. of propylparaben (bottle FL-5P P-2 (fluorinated polypropylene, level 5), time of storage 4 weeks) turned out to be 94.6 µg/mL; the Conc. of propylparaben (bottle FL-5 PP-1 (fluorinated polypropylene, level 5), time of storage 0 weeks) stood at 104 µg/mL; the Conc. of propylparaben (bottle FL-5 PP-1 (fluorinated polypropylene, level 5), time of storage 1 week) was 95.3 µg/mL. Further, the Conc. of propylparaben runs as follows: (bottle FL-5 PP-1 (fluorinated polypropylene, level 5), time of storage 2 weeks) 96.6 µg/mL; (bottle FL-5 PP-1 (fluorinated polypropylene, level 5), time of storage 4 weeks) 89.3 µg/mL; (bottle PP-1 (untreated polypropylene), time of storage 0 weeks) 103 µg/mL; (bottle PP-1 (untreated polypropylene), time of storage 1 week) 86.2 µg/mL; (bottle PP-1 (untreated polypropylene), time of storage 2 weeks) 82.5 µg/mL; (bottle PP-1 (untreated polypropylene), time of storage 4 weeks) 69.5 µg/mL. Besides, the Conc. of propylparaben is, setting by setting: (bottle PP-2 (untreated polypropylene), time of storage 0 weeks) 103 µg/mL; (bottle PP-2 (untreated polypropylene), time of storage 1 week) 86.9 µg/mL; (bottle PP-2 (untreated polypropylene), time of storage 2 weeks) 77.8 µg/mL; (bottle PP-2 (untreated polypropylene), time of storage 4 weeks) 65.1 µg/mL.

Values taken from patent US20040079671A1, “Medicinal product packaging” (priority 2002, published 2004).
